Data reported in paper PMC10285260, “Processive kinetics in the three-step lanosterol 14α-demethylation reaction catalyzed by human cytochrome P450 51A1” (The Journal of Biological Chemistry, 2023).

Experiments:
human P450 51A1 [1] = target: T1, human P450 51A1 (Homo sapiens, UniProt Q16850); assay: Inhibition of dihydrolanosterol 14-demethylation (oxidation to dihydro FF-MAS); format: biochemical; set-up: made in house; host or cells: Escherichia coli
T1 sequence (Q16850 1-509): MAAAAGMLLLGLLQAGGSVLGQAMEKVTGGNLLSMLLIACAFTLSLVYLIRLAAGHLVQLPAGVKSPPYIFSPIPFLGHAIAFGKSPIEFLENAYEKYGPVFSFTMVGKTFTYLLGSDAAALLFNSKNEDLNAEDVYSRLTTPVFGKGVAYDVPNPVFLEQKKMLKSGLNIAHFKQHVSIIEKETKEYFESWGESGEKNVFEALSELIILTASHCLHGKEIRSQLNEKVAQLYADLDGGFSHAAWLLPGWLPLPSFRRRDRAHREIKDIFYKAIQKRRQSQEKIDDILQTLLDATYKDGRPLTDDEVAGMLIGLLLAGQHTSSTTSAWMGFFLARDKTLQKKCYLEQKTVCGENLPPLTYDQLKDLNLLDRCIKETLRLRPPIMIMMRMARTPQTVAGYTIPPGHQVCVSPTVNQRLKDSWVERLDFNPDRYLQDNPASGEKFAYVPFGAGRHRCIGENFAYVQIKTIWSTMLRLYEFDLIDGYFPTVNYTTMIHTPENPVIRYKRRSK
Excerpt: Agnosterol (Fig. 2) is a common Δ^7,14 contaminant of commercial lanosterol preparations (Fig. S22) ([25], [36]). We also encountered this molecule and its derivatives, with its characteristic UV spectra derived from our synthesis beginning with 7-dehydrocholesterol (Figs. S1 and S17). The most likely entry point is the m-chloroperbenzoic acid epoxidation (Fig. S1, step 7) ([37]). […] The contaminant could be removed by preparative HPLC (C18, CH3CN, see Supporting Information).
epi-Dihydrolanosterol, which appears to be an obscure natural product ([32]), was recovered as a side product in one of the synthetic steps and shown to bind to human P450 51A1 tightly and be demethylated at a similar rate as the common β-hydroxy isomer (Figs 5B and 7A), behavior similar to that earlier reported for the yeast (Saccharomyces cerevisiae) enzyme ([34]). An H-bond between the sterol C3-OH and the main chain oxygen of a P450 51 residue preceding the beginning of the β1-4 strand is observed in four P450 51 structures in the Protein Data Bank: Trypanosoma brucei [3P99] ([48]), Trypanosoma cruzi [6FMO] ([49]), human [6UEZ] ([19]), plus a sterol-forming bacterium, Methylococcus capsulatus [7SNM] ([50]). Whether this interaction is replaced by another with epi-lanosterol is presently a point of conjecture and future research. […]

human P450 51A1 [2] = target: T1, human P450 51A1; assay: Oxidation of dihydroagnosterol by human P450 51A1 (LC-UV); format: biochemical; set-up: made in house; host or cells: Escherichia coli
Method: The possibility existed that this molecule could be a substrate. […] However, on the basis of the UV and mass spectra and literature precedents ([38], [39]), we have assigned the structure as 4,4′-dimethylcholesta-7,9,14-trienol. The UV spectrum retains (Fig. 6) the detailed chromophore of agnosterol (Fig. S23) plus an additional transition at higher wavelength, as expected based on the UV spectrum of FF-MAS (Fig. S18).
Figure 6 Oxidation of dihydroagnosterol by human P450 51A1. The incubation included 0.1 μM P450 51A1 and 10 μM dihydroagnosterol and ran for 10 min at 37 °C in the absence and presence of NADPH. The products were extracted and analyzed by UPLC-UV and UPLC-MS. A, UPLC chromatogram (UV, 192 and 245 nm). B, mass spectrum [M+H-H2O]^+, calculated for C29H45, 393.3516; found, 393.3493 (−5.9 ppm) and assigned structure. C, UV spectrum (from tR 7.3 min peak of A). UPLC, ultra-performance liquid chromatography.

SMILES: CC(C)CCCC(C)[C@H]1CC[C@@]2(C)C3=CCC4C(C)(C)[C@@H](O)CC[C@]4(C)C3=CC[C@]12C (stereo partly drawn) [dihydroagnosterol]
- IC50 (human P450 51A1 [1]): ≥ 10 µM
- rate of disappearance relative to that of dihydrolanosterol (human P450 51A1 [2]): one-half
- rate of disappearance (human P450 51A1 [2]; 0.1 μM P450 51A1, 10 μM dihydroagnosterol, 37 °C): ~10 min⁻¹
